{
  "source": "patent US11020416B2",
  "about": "“Cancer chemotherapy employing halogenated analogs of thymidine” (priority 2015, dated 2021)",
  "origin": "cited, not measured here",
  "key": {"[1]": {"tested_on": "Unresectable Sarcoma", "settings": "trial d, 1987, 14 patients, dose 1.3, iv, with radiation, multiple cycles up to 5 months, cited from earlier work"}, "[2]": {"tested_on": "Carcinoma, Melanoma", "settings": "trial c, 1962, 39 patients, dose 3.5, iv, no radiation, single cycle 1 week; cited from earlier work"}, "[3]": {"tested_on": "Oropharynx and Upper Extremity Tumors", "settings": "trial b, 1962, 4 patients, dose 3.9, iv/ia, no radiation, single cycle 1 week; cited from earlier work"}, "[4]": {"settings": "cited from earlier work; for [IdU] plasma, average steady-state: continuous iv; for [IU] plasma (iodouracil), average steady-state: continuous iv IdU"}, "[5]": {"biological_target": "PARP1 (Homo sapiens, UniProt P09874)", "sequence (P09874 whole entry, species assumed)": "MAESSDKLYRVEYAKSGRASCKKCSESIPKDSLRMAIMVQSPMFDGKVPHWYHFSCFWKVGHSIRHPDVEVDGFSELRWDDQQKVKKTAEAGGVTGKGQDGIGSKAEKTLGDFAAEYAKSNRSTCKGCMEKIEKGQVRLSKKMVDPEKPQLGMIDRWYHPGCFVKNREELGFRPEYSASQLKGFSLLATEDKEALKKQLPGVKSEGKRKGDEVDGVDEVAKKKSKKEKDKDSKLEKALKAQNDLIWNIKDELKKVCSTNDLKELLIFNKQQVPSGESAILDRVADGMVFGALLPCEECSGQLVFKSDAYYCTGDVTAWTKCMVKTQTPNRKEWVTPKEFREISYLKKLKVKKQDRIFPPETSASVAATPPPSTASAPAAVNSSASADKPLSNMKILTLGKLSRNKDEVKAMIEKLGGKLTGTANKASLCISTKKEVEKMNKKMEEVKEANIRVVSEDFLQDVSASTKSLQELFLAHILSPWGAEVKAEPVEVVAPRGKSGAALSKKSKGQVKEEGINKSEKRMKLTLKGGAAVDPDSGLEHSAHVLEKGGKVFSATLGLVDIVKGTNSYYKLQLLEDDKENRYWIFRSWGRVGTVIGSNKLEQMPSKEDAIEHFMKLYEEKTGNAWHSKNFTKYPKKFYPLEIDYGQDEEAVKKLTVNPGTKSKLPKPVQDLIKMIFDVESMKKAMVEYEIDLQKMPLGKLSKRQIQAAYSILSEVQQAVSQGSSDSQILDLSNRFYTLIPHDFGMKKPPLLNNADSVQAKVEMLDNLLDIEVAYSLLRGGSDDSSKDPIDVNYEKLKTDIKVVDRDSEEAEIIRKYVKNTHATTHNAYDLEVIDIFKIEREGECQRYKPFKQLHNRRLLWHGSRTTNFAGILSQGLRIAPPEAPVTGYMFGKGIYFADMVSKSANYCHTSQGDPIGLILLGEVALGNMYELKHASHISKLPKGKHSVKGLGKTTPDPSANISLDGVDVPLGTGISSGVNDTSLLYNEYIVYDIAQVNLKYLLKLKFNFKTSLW", "settings": "solution; Pivazyan, 1992; cited from earlier work"}, "[6]": {"settings": "14-day continuous infusion alternating with 14 days without infusion; cited from earlier work"}, "[7]": {"settings": "intraperitoneal, Morgan 1998, cited from earlier work"}, "[8]": {"tested_on": "Colorectal Liver Metastases", "settings": "trial f, 1989, 11 patients, dose 1.0, ia, no radiation, multiple cycles up to 5 months, cited from earlier work"}, "[9]": {"tested_on": "Melanoma, Carcinoma, Sarcoma", "settings": "trial a, 1961, 16 patients, dose 3.1, iv, rad +/−, multiple cycles up to 5 months; cited from earlier work"}, "[10]": {"settings": "schedule G, 1.000 Grams/M^2/day, Kinsella 1988"}, "[11]": {"settings": "schedule I, 0.781 Grams/M^2/day, Schultz 2004"}, "[12]": {"settings": "schedule J, 0.625 Grams/M^2/day, Schultz 2004"}, "[13]": {"settings": "schedule M, 0.500 Grams/M^2/day, Schultz 2004"}, "[14]": {"settings": "schedule N, 0.400 Grams/M^2/day, Schultz 2004"}, "[15]": {"settings": "schedule O, 0.300 Grams/M^2/day, Schultz 2004"}, "[16]": {"settings": "schedule Q, 0.200 Grams/M^2/day, Schultz 2004"}, "[17]": {"settings": "schedule R, 0.100 Grams/M^2/day, Schultz 2004"}, "[18]": {"settings": "schedule A, 4.538 Grams/M^2/4 hr (2 liters), 64 millimolar"}},
  "note": "Where two headings read alike, the source gives them in different places.",
  "data": [
    {"smiles": "O=c1[nH]c(=O)n([C@H]2C[C@H](O)[C@@H](CO)O2)cc1I", "note": "[Iododeoxyuridine, 5-iododeoxyuridine]", "values": [
      {"measurement": "objective improvement", "setting": "[1]", "result": 80, "unit": "%"},
      {"measurement": "subjective improvement", "setting": "[1]", "result": "more than half of patients"},
      {"measurement": "subjective improvement", "setting": "[1]; listed as IUDR", "result": 57, "unit": "%"},
      {"measurement": "objective improvement", "setting": "[2]", "result": 26, "unit": "%"},
      {"measurement": "objective improvement", "setting": "[3]", "result": 100, "unit": "%"},
      {"measurement": "subjective improvement", "setting": "[3]", "result": 100, "unit": "%"},
      {"measurement": "plasma concentration achieved", "setting": "[4]; continuous circulatory infusion, historic trials d-f", "result": "> 1000", "unit": "nM"},
      {"measurement": "elimination from patient plasma", "setting": "[4]; pharmacokinetic analysis in patients", "result": "rapidly eliminated"},
      {"measurement": "[IdU] plasma, average steady-state", "setting": "[4]; schedule C, 1.200 Grams/M^2/day, Klecker 1985", "result": 7.4, "unit": "µM"},
      {"measurement": "[IdU] plasma, average steady-state", "setting": "[4]; schedule D, 1.200 Grams/M^2/day, Kinsella 1988", "result": 3.4, "unit": "µM"},
      {"measurement": "[IdU] plasma, average steady-state", "setting": "[4]; schedule E, 1.000 Grams/M^2/day, Klecker 1985", "result": 5.6, "unit": "µM"},
      {"measurement": "[IU] plasma (iodouracil), average steady-state", "setting": "[4]; [10]", "result": ">20", "unit": "µM"},
      {"measurement": "[IdU] plasma, average steady-state", "setting": "[4]; [10]", "result": 2.4, "unit": "µM"},
      {"measurement": "[IdU] plasma, average steady-state", "setting": "[4]; schedule H, 0.850 Grams/M^2/day, Klecker 1985", "result": 4.5, "unit": "µM"},
      {"measurement": "[IU] plasma (iodouracil), average steady-state", "setting": "[4]; [11]", "result": 21.8, "unit": "µM"},
      {"measurement": "[IdU] plasma, average steady-state", "setting": "[4]; [11]", "result": 1.5, "unit": "µM"},
      {"measurement": "[IU] plasma (iodouracil), average steady-state", "setting": "[4]; [12]", "result": 13.9, "unit": "µM"},
      {"measurement": "[IdU] plasma, average steady-state", "setting": "[4]; [12]", "result": 1.3, "unit": "µM"},
      {"measurement": "[IdU] plasma, average steady-state", "setting": "[4]; schedule K, 0.500 Grams/M^2/day, Klecker 1985", "result": 2.9, "unit": "µM"},
      {"measurement": "[IdU] plasma, average steady-state", "setting": "[4]; schedule L, 0.500 Grams/M^2/day, Kinsella 1988", "result": 1.3, "unit": "µM"},
      {"measurement": "[IU] plasma (iodouracil), average steady-state", "setting": "[4]; [13]", "result": 6.0, "unit": "µM"},
      {"measurement": "[IdU] plasma, average steady-state", "setting": "[4]; [13]", "result": 0.92, "unit": "µM"},
      {"measurement": "[IU] plasma (iodouracil), average steady-state", "setting": "[4]; [14]", "result": 4.3, "unit": "µM"},
      {"measurement": "[IdU] plasma, average steady-state", "setting": "[4]; [14]", "result": 0.90, "unit": "µM"},
      {"measurement": "[IU] plasma (iodouracil), average steady-state", "setting": "[4]; [15]", "result": 3.0, "unit": "µM"},
      {"measurement": "[IdU] plasma, average steady-state", "setting": "[4]; [15]", "result": 0.57, "unit": "µM"},
      {"measurement": "[IdU] plasma, average steady-state", "setting": "[4]; schedule P, 0.250 Grams/M^2/day, Klecker 1985", "result": 1.1, "unit": "µM"},
      {"measurement": "[IU] plasma (iodouracil), average steady-state", "setting": "[4]; [16]", "result": 1.4, "unit": "µM"},
      {"measurement": "[IdU] plasma, average steady-state", "setting": "[4]; [16]", "result": 0.79, "unit": "µM"},
      {"measurement": "[IU] plasma (iodouracil), average steady-state", "setting": "[4]; [17]", "result": 0.38, "unit": "µM"},
      {"measurement": "[IdU] plasma, average steady-state", "setting": "[4]; [17]", "result": 0.51, "unit": "µM"},
      {"measurement": "Ki", "setting": "[5]", "result": 18, "unit": "µM"},
      {"measurement": "time after HAT withdrawal to myelosuppression nadir and return of blood cell counts to normal", "setting": "[6]", "result": "7 to 10", "unit": "days"},
      {"measurement": "Peritoneal AUC", "setting": "[7]; [18]", "result": 4099, "unit": "µM·h"},
      {"measurement": "Plasma AUC", "setting": "[7]; [18]", "result": 139, "unit": "µM·h"},
      {"measurement": "Plasma AUC", "setting": "[7]; schedule F, 0.625 Grams/M^2/4 hr (2 liters), 9 millimolar", "result": 4.38, "unit": "µM·h"},
      {"measurement": "objective improvement", "setting": "[8]", "result": "almost half of the patients"},
      {"measurement": "objective improvement", "setting": "[8]; listed as IUDR", "result": 45, "unit": "%"},
      {"measurement": "objective improvement", "setting": "[9]", "result": 38, "unit": "%"},
      {"measurement": "subjective improvement", "setting": "[9]", "result": 38, "unit": "%"}
    ]}
  ]
}
